According to ChEMBL document CHEMBL2021894, “The Discovery of VX-745: A Novel and Selective p38α Kinase Inhibitor” (ACS Med Chem Lett, 2011):
The source made the active and inactive calls. No cut-off for these calls is given here.

Key:
[1] = biological target: Protein kinase C beta type (Homo sapiens) (UniProt P05771); test: Inhibition of PKCb2 at 2 uM
Cytochrome P450 3A4 = Cytochrome P450 3A4 (Homo sapiens, UniProt P08684); test: Inhibition of human CYP3A4; format: ADME
[2] = biological target: Inhibitor of nuclear factor kappa-B kinase subunit alpha (Homo sapiens) (UniProt O15111); details: 2 uM
Inhibitor of nuclear factor kappa-B kinase subunit alpha (Homo sapiens), sequence (O15111 whole entry): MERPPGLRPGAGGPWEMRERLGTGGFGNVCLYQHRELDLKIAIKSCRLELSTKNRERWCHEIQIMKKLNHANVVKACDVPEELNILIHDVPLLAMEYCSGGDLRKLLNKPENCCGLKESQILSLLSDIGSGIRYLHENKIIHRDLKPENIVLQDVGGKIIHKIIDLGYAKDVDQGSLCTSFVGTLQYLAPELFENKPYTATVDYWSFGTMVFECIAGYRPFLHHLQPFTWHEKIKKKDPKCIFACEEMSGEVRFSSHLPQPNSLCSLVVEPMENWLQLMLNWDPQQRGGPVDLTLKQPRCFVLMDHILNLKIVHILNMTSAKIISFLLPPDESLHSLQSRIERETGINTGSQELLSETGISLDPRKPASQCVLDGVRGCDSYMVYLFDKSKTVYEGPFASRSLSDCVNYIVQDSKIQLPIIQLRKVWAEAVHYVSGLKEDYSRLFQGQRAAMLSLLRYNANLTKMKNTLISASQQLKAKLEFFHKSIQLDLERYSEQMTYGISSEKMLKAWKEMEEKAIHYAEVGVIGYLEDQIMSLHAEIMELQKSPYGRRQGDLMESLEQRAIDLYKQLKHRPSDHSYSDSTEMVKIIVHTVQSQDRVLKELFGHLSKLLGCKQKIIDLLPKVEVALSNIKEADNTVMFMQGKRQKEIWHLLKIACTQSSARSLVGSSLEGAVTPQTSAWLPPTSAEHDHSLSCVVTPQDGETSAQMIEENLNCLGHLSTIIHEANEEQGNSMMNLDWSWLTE
Description: Inhibition of IKKa at 2 uM

[3] = biological target: Mitogen-activated protein kinase 10 (Homo sapiens) (UniProt P53779); test: Inhibition of JNK3 using KRELVEPLTPSGEAPNQALLR as substrate at 100 uM by spectrophotometric enzyme-coupled assay
Mitogen-activated protein kinase 10 (Homo sapiens), sequence (P53779 whole entry): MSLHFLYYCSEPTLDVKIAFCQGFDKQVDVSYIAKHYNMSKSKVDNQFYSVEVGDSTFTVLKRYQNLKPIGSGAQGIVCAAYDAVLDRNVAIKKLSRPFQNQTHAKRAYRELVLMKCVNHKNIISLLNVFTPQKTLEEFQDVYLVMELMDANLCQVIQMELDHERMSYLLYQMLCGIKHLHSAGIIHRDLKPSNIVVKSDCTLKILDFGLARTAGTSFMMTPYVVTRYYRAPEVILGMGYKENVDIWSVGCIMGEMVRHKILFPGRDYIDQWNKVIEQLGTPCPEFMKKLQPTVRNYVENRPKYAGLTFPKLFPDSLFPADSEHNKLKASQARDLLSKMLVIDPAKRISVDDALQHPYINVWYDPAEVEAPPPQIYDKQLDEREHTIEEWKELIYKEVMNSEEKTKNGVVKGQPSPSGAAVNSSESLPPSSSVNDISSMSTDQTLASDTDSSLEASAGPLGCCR

[4] = biological target: Tyrosine-protein kinase Fyn (Homo sapiens) (UniProt P06241); test: Inhibition of Fyn at 2 uM
Cytochrome P450 2C19 = Cytochrome P450 2C19 (Homo sapiens, UniProt P33261); test: Inhibition of human CYP2C19; format: ADME
[5] = Cmax in Sprague-Dawley rat at 43 mg/kg, po; format: ADME, organism-based; set-up: dose 43 mg/kg, route oral; details: in vivo
[6] = biological target: Cyclin-dependent kinase 1 (Homo sapiens) (UniProt P06493); details: 2 uM
Description: Inhibition of CDK1 at 2 uM

[7] = Plasma protein binding in rat; format: ADME, cell-free; details: read-out: PPB (converted)
Mus musculus [8] = test: Antiarthritic activity in complete Freund's adjuvant-immunized DBA/1J mouse assessed as inhibition of type 2 collagen-induced bone and cartilage erosion at 5 mg/kg, po bid measured on day 20; format: functional; details: 480 h
Mus musculus [9] = test: Antiarthritic activity in complete Freund's adjuvant-immunized DBA/1J mouse assessed as inhibition of type 2 collagen-induced bone and cartilage erosion at 10 mg/kg, po bid measured on day 20; format: functional; details: 480 h
[10] = biological target: MAP kinase-activated protein kinase 5 (Homo sapiens) (UniProt Q8IW41); test: Inhibition of PRAK at 2 uM
Mus musculus [11] = test: Antiarthritic activity in complete Freund's adjuvant-immunized DBA/1J mouse assessed as inhibition of type 2 collagen-induced paw inflammation at […], po bid measured on day 20; format: functional; details: 480 h, dose 2.5 mg/kg
[12] = biological target: Tyrosine-protein kinase Fes/Fps (Homo sapiens) (UniProt P07332); details: 2 uM
Tyrosine-protein kinase Fes/Fps (Homo sapiens), sequence (P07332 whole entry): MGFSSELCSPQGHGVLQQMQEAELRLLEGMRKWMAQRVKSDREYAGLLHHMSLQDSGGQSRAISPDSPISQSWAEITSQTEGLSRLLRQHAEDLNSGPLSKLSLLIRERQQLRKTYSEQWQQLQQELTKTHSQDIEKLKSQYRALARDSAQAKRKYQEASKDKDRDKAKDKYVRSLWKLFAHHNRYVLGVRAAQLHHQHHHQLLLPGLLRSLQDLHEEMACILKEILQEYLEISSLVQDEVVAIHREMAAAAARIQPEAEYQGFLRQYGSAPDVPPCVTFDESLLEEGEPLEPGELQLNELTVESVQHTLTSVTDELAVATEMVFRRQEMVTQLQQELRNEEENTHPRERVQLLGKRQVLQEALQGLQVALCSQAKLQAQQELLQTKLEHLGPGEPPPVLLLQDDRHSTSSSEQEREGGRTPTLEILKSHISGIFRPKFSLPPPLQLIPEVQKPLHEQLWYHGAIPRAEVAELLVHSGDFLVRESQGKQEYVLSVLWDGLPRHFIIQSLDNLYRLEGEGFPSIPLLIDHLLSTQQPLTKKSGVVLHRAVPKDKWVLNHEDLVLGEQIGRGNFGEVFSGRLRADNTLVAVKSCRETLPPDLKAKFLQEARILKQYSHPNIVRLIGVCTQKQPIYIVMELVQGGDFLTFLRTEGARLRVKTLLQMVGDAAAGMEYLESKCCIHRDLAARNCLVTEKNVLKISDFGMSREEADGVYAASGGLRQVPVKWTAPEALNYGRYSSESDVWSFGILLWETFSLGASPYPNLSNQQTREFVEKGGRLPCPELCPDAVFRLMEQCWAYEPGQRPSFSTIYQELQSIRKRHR
Description: Inhibition of FES at 2 uM

[13] = biological target: Dual specificity mitogen-activated protein kinase kinase 2 (Homo sapiens) (UniProt P36507); test: Inhibition of MEK2 at 2 uM
[14] = Cmax in beagle dog at 33 mg/kg, po; format: ADME, organism-based, Canis lupus familiaris; set-up: dose 33 mg/kg, route oral; details: in vivo
Mus musculus [15] = test: Antiarthritic activity in complete Freund's adjuvant-immunized DBA/1J mouse assessed as inhibition of type 2 collagen-induced bone and cartilage erosion at […], po bid measured on day 20; format: functional; details: 480 h, dose 2.5 mg/kg
[16] = Half life in BALB/c mouse at 40 mg/kg, po; format: ADME, organism-based; set-up: dose 40 mg/kg, route oral; details: in vivo
[17] = biological target: Insulin receptor (Homo sapiens) (UniProt P06213); details: 2 uM
Description: Inhibition of IRTK at 2 uM

[18] = biological target: Mitogen-activated protein kinase 11 (Homo sapiens) (UniProt Q15759); details: 2 uM
Mitogen-activated protein kinase 11 (Homo sapiens), sequence (Q15759 whole entry): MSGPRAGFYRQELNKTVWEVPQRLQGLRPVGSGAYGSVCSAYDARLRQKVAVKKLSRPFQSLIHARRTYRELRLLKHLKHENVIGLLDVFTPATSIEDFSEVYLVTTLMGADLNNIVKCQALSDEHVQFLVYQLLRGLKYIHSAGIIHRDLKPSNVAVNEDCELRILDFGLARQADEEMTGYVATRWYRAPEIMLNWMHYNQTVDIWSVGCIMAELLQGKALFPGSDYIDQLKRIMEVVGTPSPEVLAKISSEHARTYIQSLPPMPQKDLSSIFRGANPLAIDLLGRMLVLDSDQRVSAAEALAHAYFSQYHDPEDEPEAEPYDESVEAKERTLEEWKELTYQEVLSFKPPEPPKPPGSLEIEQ
Description: Inhibition of p38beta at 2 uM

[19] = biological target: Epidermal growth factor receptor (Homo sapiens) (UniProt P00533); details: 2 uM
Epidermal growth factor receptor (Homo sapiens), sequence (P00533 whole entry): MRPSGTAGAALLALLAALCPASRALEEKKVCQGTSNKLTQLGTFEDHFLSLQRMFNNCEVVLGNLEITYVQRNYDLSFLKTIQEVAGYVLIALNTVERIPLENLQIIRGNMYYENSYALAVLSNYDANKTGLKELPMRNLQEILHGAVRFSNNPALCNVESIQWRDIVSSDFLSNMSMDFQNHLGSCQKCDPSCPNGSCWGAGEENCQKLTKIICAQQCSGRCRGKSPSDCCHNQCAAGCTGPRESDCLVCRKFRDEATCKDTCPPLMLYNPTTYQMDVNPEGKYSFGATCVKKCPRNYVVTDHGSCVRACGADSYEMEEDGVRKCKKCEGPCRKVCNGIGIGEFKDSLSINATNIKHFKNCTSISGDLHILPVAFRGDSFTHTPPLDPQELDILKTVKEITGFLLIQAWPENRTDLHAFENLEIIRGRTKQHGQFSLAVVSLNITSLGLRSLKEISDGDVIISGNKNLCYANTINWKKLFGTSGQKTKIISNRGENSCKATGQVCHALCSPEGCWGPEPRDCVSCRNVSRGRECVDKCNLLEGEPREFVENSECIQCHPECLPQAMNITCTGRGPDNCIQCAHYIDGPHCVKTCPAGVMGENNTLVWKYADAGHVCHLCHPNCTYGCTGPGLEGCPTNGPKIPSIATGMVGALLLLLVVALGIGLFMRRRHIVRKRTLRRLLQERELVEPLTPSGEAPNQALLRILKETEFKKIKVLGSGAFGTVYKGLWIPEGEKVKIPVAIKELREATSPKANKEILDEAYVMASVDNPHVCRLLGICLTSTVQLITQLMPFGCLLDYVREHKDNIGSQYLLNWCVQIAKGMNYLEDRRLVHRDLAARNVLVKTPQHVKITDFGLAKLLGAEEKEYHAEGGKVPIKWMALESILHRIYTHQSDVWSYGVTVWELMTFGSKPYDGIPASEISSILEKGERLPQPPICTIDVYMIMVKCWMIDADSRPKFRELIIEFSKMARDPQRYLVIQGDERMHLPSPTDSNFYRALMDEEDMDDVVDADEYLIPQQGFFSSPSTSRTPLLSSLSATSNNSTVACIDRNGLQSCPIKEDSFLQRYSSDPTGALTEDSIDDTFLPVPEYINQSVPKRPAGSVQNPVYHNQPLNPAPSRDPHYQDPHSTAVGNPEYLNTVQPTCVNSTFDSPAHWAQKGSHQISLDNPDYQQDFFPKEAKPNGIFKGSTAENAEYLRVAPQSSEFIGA
Description: Inhibition of EGFR at 2 uM

[20] = Half life in BALB/c mouse at 2 mg/kg, iv; format: ADME, organism-based; set-up: dose 2 mg/kg, route intravenous; details: in vivo
Mus musculus [21] = test: Antiarthritic activity in complete Freund's adjuvant-immunized DBA/1J mouse assessed as inhibition of type 2 collagen-induced paw inflammation at 5 mg/kg, po bid measured on day 20; format: functional; details: 480 h
[22] = biological target: Inhibitor of nuclear factor kappa-B kinase subunit beta (Homo sapiens) (UniProt O14920); details: 2 uM
Description: Inhibition of IKKb at 2 uM

[23] = Clearance in BALB/c mouse at 2 mg/kg, iv; format: ADME, organism-based; set-up: dose 2 mg/kg, route intravenous; details: in vivo
[24] = biological target: Fibroblast growth factor receptor 3 (Homo sapiens) (UniProt P22607); test: Inhibition of FGFR3 at 2 uM
Fibroblast growth factor receptor 3 (Homo sapiens), sequence (P22607 23-806 limits assumed): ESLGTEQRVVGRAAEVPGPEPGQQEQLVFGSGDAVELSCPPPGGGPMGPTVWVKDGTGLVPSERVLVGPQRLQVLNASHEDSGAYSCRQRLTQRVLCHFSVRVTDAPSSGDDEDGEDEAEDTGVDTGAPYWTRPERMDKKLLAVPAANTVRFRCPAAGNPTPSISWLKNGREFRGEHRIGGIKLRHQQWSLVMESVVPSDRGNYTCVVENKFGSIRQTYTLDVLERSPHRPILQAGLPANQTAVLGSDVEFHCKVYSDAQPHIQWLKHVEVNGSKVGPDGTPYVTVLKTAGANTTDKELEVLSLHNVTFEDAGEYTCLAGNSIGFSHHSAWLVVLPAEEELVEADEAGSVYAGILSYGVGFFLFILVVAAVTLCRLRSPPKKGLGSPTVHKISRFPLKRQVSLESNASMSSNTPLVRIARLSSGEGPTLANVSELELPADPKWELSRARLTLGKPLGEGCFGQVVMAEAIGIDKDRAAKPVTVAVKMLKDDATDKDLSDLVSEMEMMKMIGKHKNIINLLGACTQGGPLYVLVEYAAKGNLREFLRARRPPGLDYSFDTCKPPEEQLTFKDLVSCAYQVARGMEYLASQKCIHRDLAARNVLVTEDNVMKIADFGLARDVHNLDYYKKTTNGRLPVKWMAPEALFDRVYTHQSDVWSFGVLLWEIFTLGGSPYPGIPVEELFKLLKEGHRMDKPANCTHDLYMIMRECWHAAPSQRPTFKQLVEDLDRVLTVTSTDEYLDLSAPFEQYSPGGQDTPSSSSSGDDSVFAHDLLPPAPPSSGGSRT

Cytochrome P450 3A4, sequence (P08684 whole entry): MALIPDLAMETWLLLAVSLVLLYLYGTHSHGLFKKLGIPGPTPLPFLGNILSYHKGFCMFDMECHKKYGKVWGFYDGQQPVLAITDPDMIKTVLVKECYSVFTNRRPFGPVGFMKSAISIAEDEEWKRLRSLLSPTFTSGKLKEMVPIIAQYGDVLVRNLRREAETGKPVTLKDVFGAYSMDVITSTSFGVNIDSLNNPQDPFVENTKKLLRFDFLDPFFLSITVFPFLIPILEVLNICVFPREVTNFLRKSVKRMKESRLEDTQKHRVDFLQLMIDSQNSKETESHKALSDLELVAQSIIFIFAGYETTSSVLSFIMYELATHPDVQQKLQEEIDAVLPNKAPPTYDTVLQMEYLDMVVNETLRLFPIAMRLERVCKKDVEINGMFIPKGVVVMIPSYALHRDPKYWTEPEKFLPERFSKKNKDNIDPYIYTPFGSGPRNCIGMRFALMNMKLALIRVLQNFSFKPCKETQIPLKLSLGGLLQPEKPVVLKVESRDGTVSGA

O=c1ncn2nc(Sc3ccc(F)cc3F)ccc2c1-c1c(Cl)cccc1Cl [NEFLAMAPIMOD]
inhibition [1]: 5% | IC50 (Cytochrome P450 3A4): > 40 µM | inhibition [2]: 0% | inhibition [3]: inactive | inhibition [4]: 6% | IC50 (Cytochrome P450 2C19): > 40 µM | Cmax [5]: 890 ng/mL | inhibition [6]: 0% | fraction unbound [7]: 0.02 | inhibition in vivo at 5 mg/kg (Mus musculus [8]): 32% | inhibition in vivo at 10 mg/kg (Mus musculus [9]): 39% | inhibition [10]: 12% | inhibition in vivo at […] (Mus musculus [11]): 27% | inhibition [12]: 7% | inhibition [13]: 14% | Cmax [14]: 1370 ng/mL | inhibition in vivo at […] (Mus musculus [15]): 35% | half-life [16]: 4.5 h | inhibition [17]: 0% | inhibition [18]: 84% | inhibition [19]: 7% | half-life [20]: 2.6 h | inhibition in vivo at 5 mg/kg (Mus musculus [21]): 31% | inhibition [22]: 0% | clearance [23]: 21 mL/min/kg | inhibition [24]: 20%
